Measured values as given in patent US12427212B2, “Nectin-4 binding miniproteins, conjugates and uses thereof” (Aktis Oncology, Inc., priority 2023, dated 2025).
Bridges are numbered along the chain shown (N, C = ends). The star is where a group is joined. DOTA = O=C(O)CN1CCN(CC(=O)O)CCN(CC(=O)*)CCN(CC(=O)O)CC1; PEG4 = NCCOCCOCCOCCOCCC(=O)O

Columns and labels:
[1] = tested on: Opossum kidney proximal tubule cells; assay: Proximal tubule epithelial cell uptake assay; format: cell-based; details: for % Uptake of C306: Table 10B, modified lysine miniproteins
Protocol: FIG. 8 is a bar graph of the percent uptake of exemplary miniproteins tested at 20 µM in a proximal tubule epithelial cell assay vs 20 μM control peptide set at 100%. […]
Opossum kidney proximal tubule cells were plated in the upper chamber of 24-well transwell plates containing 600 μL of growth media in the lower chamber and were incubated overnight at 37° C., in 5% CO2. The following day, the media was changed, and cells were incubated an additional 24 h with orbital shaking at 146 RPM. Next, cells were washed and treated in duplicates with biotinylated exemplary miniproteins pre-complexed with streptavidin-AF647 for 1 h at 37° C., and 5% C02 with continuous orbital shaking. Following incubation, cells were washed three times with 1×PBS and lysed with RIPA buffer containing protease and phosphatase inhibitor cocktail and a universal nuclease for 30 minutes. Uptake was measured on 100 μL of lysates using a fluorimeter. Mean % uptake values of control miniprotein C306 in the presence of exemplary miniproteins are provided in TABLE 10A and summarized in FIG. 8.
Uptake of engineered Nectin-4 miniproteins with further modified lysine residues (C298-C304, as described in Example 4B) was evaluated. Percent uptake of these exemplary Nectin-4-targeting miniproteins and C251 were determined against a control miniprotein, C306, using opossum kidney proximal tubule cells as described in Example 18A. Percent uptake of C298, which has an unmodified lysine (K) at amino acid position 26 (along the length of the miniprotein sequence. SEQ ID NO: 162), was 37% in the presence of […]. All other miniproteins having a modified lysine (modified with one or more small alkyl groups of monomethyl, dimethyl, trimethyl, or isopropyl group) had (i) kidney uptake similar to that of C251 and (ii) reduced uptake as compared to C298, which has an unmodified lysine at position 26.

[2] = In vivo biodistribution of 111In-labeled miniproteins by SPECT/CT, HT-1376 xenograft; design: species or system mouse; details: female, athymic nude, mouse, in vivo
Text: HT-1376 is a human cell line that expresses Nectin-4.
Humane endpoints: All animals were euthanized following the final imaging time point and carcasses were discarded according to IACUC protocols.
Image Processing: Images were generated as SPECT/CT pairs with the SPECT reported in units of activity.
Image generation: After the preprocessing described in A, individual maximum intensity projections (MIPs) were created with VivoQuant software for each subject at each time point and scaled in percent injected dose per gram (% ID/g). The CT for each image was windowed from −500 to 4500 Hounsfield Units (HU). The SPECT was windowed at various ranges to highlight different regions of uptake. Images were then stitched together using Image Magick based python tools to create montages of subjects over time and time points over groups.

[3] = In vitro metabolic stability in serum/plasma (percent parent remaining, LC-MS); format: in vitro ADME; details: mouse
Protocol: Exemplary miniproteins were spiked into biological matrices at initial concentration between 1-2 μM. Tested matrices were varied by species (mouse, rat, human) and type (plasma, serum, and kidney brush border membrane (kBBM) preparations tested each from 0.625-100 μg/mL protein content). Tested conditions were incubated with miniproteins at 37° C. for 4 h. At collection points of 0, 15, 30, 60, 120, 240 minutes, 50 μL of each condition were quenched by organic solvent (methanol or acetonitrile) or the addition of 4% phosphoric acid solution followed by solid-phase extraction. Fractions of each quenched timepoint were subsequently assayed for parent miniproteins concentration by high resolution LC-MS. Percent-parent-remaining-time plots were constructed from the ratio of each given time collection to the time-zero parent miniprotein. Percent-parent-remaining in mouse serum and plasma for exemplary miniproteins are recorded in TABLE 11.

[4] = opossum kidney proximal tubule cells, relative to control miniprotein C306

Molecule	% Uptake of C306 (Control) ([1]; Table 10A, mean percent uptake in opossum kidney cells, 1 h at 37° C., relative to control miniprotein C306)	tissue uptake at 4 h [2]	tissue uptake at 24 h [2]	half-life [3]	half-life ([3]; plasma)	% Uptake of C306 [1, 4]	Percent uptake of control miniprotein C306 in the presence of exemplary miniprotein ([1]; opossum kidney proximal tubule cells, 1 h at 37° C.)
CC[C@H](C)[C@@H]1NC(=O)[C@H](Cc2ccc(O)cc2)NC(=O)[C@H](Cc2ccc(O)cc2)NC(=O)[C@@H]2CSSC[C@@H](C(=O)N[C@@H](CO)C(=O)O)NC(=O)CNC(=O)[C@H](CC(C)C)NC(=O)[C@H](CC(N)=O)NC(=O)[C@H](CC(=O)O)NC(=O)[C@H](CC(C)C)NC(=O)[C@H]([C@@H](C)CC)NC(=O)[C@H](CCC(=O)O)NC(=O)[C@H](CCC(=O)O)NC(=O)[C@H]([C@@H](C)CC)NC(=O)[C@H](CSSC[C@H](NC(=O)CCOCCOCCOCCOCCNC(=O)CCCC[C@@H]3SC[C@@H]4NC(=O)N[C@@H]43)C(=O)N[C@@H](CCC(=O)O)C(=O)N[C@@H](Cc3ccc(O)cc3)C(=O)N[C@@H](CC(=O)O)C(=O)N[C@@H](CCC(=O)O)C(=O)N[C@@H](CCC(=O)O)C(=O)N[C@@H](Cc3ccccc3)C(=O)N[C@@H](Cc3ccccc3)C(=O)N[C@@H]([C@@H](C)O)C(=O)N[C@@H](C)C(=O)N[C@@H](CC(C)C)C(=O)N[C@@H](CCCCN)C(=O)N[C@@H](CCCNC(=N)N)C(=O)N[C@@H](CC(C)C)C(=O)N[C@@H](CCCNC(=N)N)C(=O)NCC(=O)NCC(=O)N[C@@H](CC(=O)O)C(=O)N[C@@H]([C@@H](C)CC)C(=O)N2)NC(=O)[C@H](CC(C)C)NC(=O)CNC(=O)[C@@H]2CCCN2C(=O)[C@H](CC(C)C)NC(=O)[C@H](Cc2ccc(O)cc2)NC(=O)[C@H](CCC(N)=O)NC(=O)[C@H](Cc2ccccc2)NC(=O)[C@H](CO)NC(=O)[C@H](C)NC(=O)[C@H](CCC(N)=O)NC1=O [Compound C111]	20.8%						
CC[C@H](C)[C@@H]1NC(=O)[C@H](Cc2ccc(O)cc2)NC(=O)[C@H](CCC(=O)O)NC(=O)[C@@H]2CSSC[C@@H](C(=O)N[C@@H](CO)C(=O)O)NC(=O)CNC(=O)[C@H](CC(C)C)NC(=O)[C@H](CC(N)=O)NC(=O)[C@H](CC(=O)O)NC(=O)[C@H](CC(C)C)NC(=O)[C@H]([C@@H](C)CC)NC(=O)[C@H](CCC(=O)O)NC(=O)[C@H](CCC(=O)O)NC(=O)[C@H]([C@@H](C)CC)NC(=O)[C@H](CSSC[C@H](NC(=O)CCOCCOCCOCCOCCNC(=O)CN3CCN(CC(=O)O)CCN(CC(=O)O)CCN(CC(=O)O)CC3)C(=O)N[C@@H](CC(=O)O)C(=O)N[C@@H](Cc3ccc(O)cc3)C(=O)N[C@@H](CC(=O)O)C(=O)N[C@@H](CCC(=O)O)C(=O)N[C@@H](CCC(N)=O)C(=O)N[C@@H](Cc3ccccc3)C(=O)N[C@@H](Cc3ccccc3)C(=O)N[C@@H]([C@@H](C)O)C(=O)N[C@@H](C)C(=O)N[C@@H](CC(C)C)C(=O)N[C@@H](CCCCN)C(=O)N[C@@H](CCCNC(=N)N)C(=O)N[C@@H](CC(C)C)C(=O)N[C@@H](CCCNC(=N)N)C(=O)NCC(=O)N[C@@H](C)C(=O)N[C@@H](CC(=O)O)C(=O)N[C@@H]([C@@H](C)CC)C(=O)N2)NC(=O)[C@H](CCC(=O)O)NC(=O)CNC(=O)[C@@H]2CCCN2C(=O)[C@H](CC(C)C)NC(=O)[C@H](Cc2ccc(O)cc2)NC(=O)[C@H](CCC(N)=O)NC(=O)[C@H](Cc2ccccc2)NC(=O)[C@H](CO)NC(=O)[C@H](C)NC(=O)[C@H](CCC(N)=O)NC1=O [Compound C271]		59.1 %ID/g	34.3 %ID/g	> 12 h	> 12 h		
CC[C@H](C)[C@@H]1NC(=O)[C@H](Cc2ccc(O)cc2)NC(=O)[C@H](CCC(N)=O)NC(=O)[C@@H]2CSSC[C@@H](C(=O)N[C@@H](CO)C(=O)O)NC(=O)CNC(=O)[C@H](CC(C)C)NC(=O)[C@H](CC(N)=O)NC(=O)[C@H](CC(=O)O)NC(=O)[C@H](CC(C)C)NC(=O)[C@H]([C@@H](C)CC)NC(=O)[C@H](CCC(=O)O)NC(=O)[C@H](CCC(=O)O)NC(=O)[C@H]([C@@H](C)CC)NC(=O)[C@H](CSSC[C@H](NC(=O)CCOCCOCCOCCOCCNC(=O)CCCC[C@@H]3SC[C@@H]4NC(=O)N[C@@H]43)C(=O)N[C@@H](CCC(=O)O)C(=O)N[C@@H](Cc3ccc(O)cc3)C(=O)N[C@@H](CC(=O)O)C(=O)N[C@@H](CCC(=O)O)C(=O)N[C@@H](CCC(=O)O)C(=O)N[C@@H](Cc3ccccc3)C(=O)N[C@@H](Cc3ccccc3)C(=O)N[C@@H]([C@@H](C)O)C(=O)N[C@@H](C)C(=O)N[C@@H](CC(C)C)C(=O)N[C@@H](C)C(=O)N[C@@H](CCCNC(=N)N)C(=O)N[C@@H](CC(C)C)C(=O)N[C@@H](CCCNC(=N)N)C(=O)NCC(=O)NCC(=O)N[C@@H](CC(=O)O)C(=O)N[C@@H]([C@@H](C)CC)C(=O)N2)NC(=O)[C@H](CC(C)C)NC(=O)[C@H](C)NC(=O)[C@@H]2CCCN2C(=O)[C@H](CC(C)C)NC(=O)[C@H](Cc2ccc(O)cc2)NC(=O)[C@H](CCC(N)=O)NC(=O)[C@H](Cc2ccccc2)NC(=O)[C@H](CCCCN)NC(=O)[C@H](C)NC(=O)[C@H](CCC(N)=O)NC1=O [Compound C298]						37%	37%
CC[C@H](C)[C@@H]1NC(=O)[C@H](Cc2ccc(O)cc2)NC(=O)[C@H](CCC(N)=O)NC(=O)[C@@H]2CSSC[C@@H](C(=O)N[C@@H](CO)C(=O)O)NC(=O)CNC(=O)[C@H](CC(C)C)NC(=O)[C@H](CC(N)=O)NC(=O)[C@H](CC(=O)O)NC(=O)[C@H](CC(C)C)NC(=O)[C@H]([C@@H](C)CC)NC(=O)[C@H](CCC(=O)O)NC(=O)[C@H](CCC(=O)O)NC(=O)[C@H]([C@@H](C)CC)NC(=O)[C@H](CSSC[C@H](NC(=O)CCOCCOCCOCCOCCNC(=O)CCCC[C@@H]3SC[C@@H]4NC(=O)N[C@@H]43)C(=O)N[C@@H](CCC(=O)O)C(=O)N[C@@H](Cc3ccc(O)cc3)C(=O)N[C@@H](CC(=O)O)C(=O)N[C@@H](CCC(=O)O)C(=O)N[C@@H](CCC(=O)O)C(=O)N[C@@H](Cc3ccccc3)C(=O)N[C@@H](Cc3ccccc3)C(=O)N[C@@H]([C@@H](C)O)C(=O)N[C@@H](C)C(=O)N[C@@H](CC(C)C)C(=O)N[C@@H](C)C(=O)N[C@@H](CCCNC(=N)N)C(=O)N[C@@H](CC(C)C)C(=O)N[C@@H](CCCNC(=N)N)C(=O)NCC(=O)NCC(=O)N[C@@H](CC(=O)O)C(=O)N[C@@H]([C@@H](C)CC)C(=O)N2)NC(=O)[C@H](CC(C)C)NC(=O)[C@H](C)NC(=O)[C@@H]2CCCN2C(=O)[C@H](CC(C)C)NC(=O)[C@H](Cc2ccc(O)cc2)NC(=O)[C@H](CCC(N)=O)NC(=O)[C@H](Cc2ccccc2)NC(=O)[C@H](CCCCNC)NC(=O)[C@H](C)NC(=O)[C@H](CCC(N)=O)NC1=O [Compound C299]						3%	
{DOTA-PEG4}-CEYDEEFFTALARLRGDDICSYIQAKFQYLPGLCIEEILDNLGCS-OH (disulfide 1-34, 20-44 (inferred)) [Compound C293]		55.8 %ID/g	32.6 %ID/g	> 12 h	> 12 h		
{DOTA-PEG4}-CEYDEQFFTALKRLRGADICSYIQASFQYLPGLCIEEILDNLGCS-OH (disulfide 1-34, 20-44) [Compound C250]		67.5 %ID/g	34.9 %ID/g	> 12 h	> 12 h		
